Data taken from patent US20030104507A1, “Method for detection of ATP” (priority 2001, published 2003).

Test system: ATPase activity endogenous to L929 cell lysate
Experiment: Detergent inhibition of ATPase endogenous to L929 cell lysate (ATP remaining by luciferase luminescence, 22° C.)
Assay type: biochemical
Parameters: key to Relative ATPase Activity, slope det/slope lysate: slope with detergent / slope without; ≥1.0 = 100% activity, 0.5 = 50%
Experimental: Three separate detergents in each of four detergent classes were tested: anionic [SDS (Sodium dodecyl sulfate), Bioterge (an α olefin sulfate), and sodium deoxycholate], nonionic [TRITON X-100, BigCHAP (N,N-bis(3-D-Gluconamidopropyl)cholamide) and THESIT (polyethylene glycol 400 dodecyl ether, Fluka, #88315)], cationic [BDDABr (Benzyldimethyldodecylammonium bromide), CTAB (Cetyltrimethylammonium bromide), and DTAB (dodecyltrimethylammonium bromide)] and zwitterionic [CHAPS (3[(3-Cholamidopropyl)dimethylammonio]propanesulfonic acid), CHAPSO (3-([3-Cholamidopropyl]dimethylammonio)-2-hydroxy-1-propanesulfonate), and Sulfobetaine 3-10 ([…]-N,N-dimethyl-3-ammonio-1-propanesulfonate)]. Detergents were obtained from Sigma, Fluka and Aldrich.
L929 cells (ATCC CCL-1; 1.5×10^5 cells/ml) in F12/DMEM (Hyclone, SH30023) containing 10% horse serum (Hyclone, SH30074) were frozen and thawed for four cycles to create a cell lysate. Then 50 μl of stock detergent solutions [10%, 5.0%, 1.0%, and 0.5% (w/v)] were separately added to 450 μl cell lysate, creating a final detergent concentration in the cell lysate sample of 1.0%, 0.5%, 0.1%, and 0.05%, respectively (these percentage values are those used in Tables D and E herein below). Control samples contained either lysate only or 1.0 μM ATP in 15 mM HEPES buffer (pH 7.5). All samples were incubated at 22° C. (room temperature) for the duration of the experiment.
At various timepoints, 20 μl from each sample/detergent mixture was added to a 96-well luminometer plate in triplicate, and then 100 μl of a solution (“luciferase-luciferin” or “L/L reagent”) containing 25 mM HEPES buffer (pH 7.5), 40 μg luciferase enzyme LucPpe2m146 (Promega, E140), 100 μM luciferin (Promega), and 10 mM MgSO4 was added to each well. The L/L reagent was stored at 4° C. for the duration of the experiment and then allowed to reach ambient temperature just before assaying. After mixing the contents of the plate, light output was measured with a Dynex MLX microtiter plate luminometer (Chantilly, Va.), 0.5 second reads per well with the first measurement taken five minutes after the detergent solution was combined with the sample. The average relative light units and the timepoint at which it was measured (rlu; Table D) and percent of remaining luciferase activity at the timepoint (Table E) are reported; controls were run with each set of experimental conditions as indicated. The cationic and anionic detergents were assayed on one day with one set of controls. The zwitterionic and nonionic detergents were assayed on a separate day with a separate set of controls. The DTAB at 0.5% was assayed on both days (1 and 2).
The experiment was performed as detailed in Example 1. The average relative light unit values and the percent of ATP remaining values are listed below in Table F and G respectively.
The log of the percent of ATP remaining after original timepoint values from Table E and Table G were plotted on the y axis against time (in minutes) on the x axis. The slope of the line generated by these values in the presence of detergent was divided by the slope of the line generated by the values in the absence of detergent (lysate control) resulting in the Relative ATPase Activity values listed below in Table H.
A relative activity value of 1.0 or greater indicates 100% cellular ATPase activity at the concentration of detergent tested. A relative activity value of 0.5 indicates a two-fold (or 50%) decrease in the level of cellular ATPase activity at the concentration of detergent tested when compared to the ATPase activity level in the absence of the detergent. A relative activity value of 0.2 indicates a five-fold (or 80%) decrease in the level of cellular ATPase activity at the concentration of detergent tested when compared to the ATPase activity level in the absence of the detergent.

polyethylene glycol 400 dodecyl ether [THESIT]
Average Relative Light Unit Values (0.05% detergent, 5 min): 5632.96 rlu
Percent ATP Remaining (0.05% detergent, 5 min): 100%
Average Relative Light Unit Values (0.05% detergent, 75 min): 1601.09 rlu
Percent ATP Remaining (0.05% detergent, 75 min): 28.4%
Average Relative Light Unit Values (0.05% detergent, 169 min): 623.38 rlu
Percent ATP Remaining (0.05% detergent, 169 min): 11.1%
Average Relative Light Unit Values (0.05% detergent, 222 min): 211.67 rlu
Percent ATP Remaining (0.05% detergent, 222 min): 3.8%
Average Relative Light Unit Values (0.05% detergent, 260 min): 110.15 rlu
Percent ATP Remaining (0.05% detergent, 260 min): 2.0%
Relative ATPase Activity, slope det/slope lysate (0.05 percent detergent): 1.295
Slope (log percent ATP remaining vs time in minutes) (0.05 percent detergent): −0.0068
Average Relative Light Unit Values (0.1% detergent, 5 min): 6022.32 rlu
Percent ATP Remaining (0.1% detergent, 5 min): 100%
Average Relative Light Unit Values (0.1% detergent, 75 min): 2654.97 rlu
Percent ATP Remaining (0.1% detergent, 75 min): 44.1%
Average Relative Light Unit Values (0.1% detergent, 169 min): 1509.07 rlu
Percent ATP Remaining (0.1% detergent, 169 min): 25.1%
Average Relative Light Unit Values (0.1% detergent, 222 min): 755.94 rlu
Percent ATP Remaining (0.1% detergent, 222 min): 12.6%
Average Relative Light Unit Values (0.1% detergent, 260 min): 447.44 rlu
Percent ATP Remaining (0.1% detergent, 260 min): 7.4%
Relative ATPase Activity, slope det/slope lysate (0.10 percent detergent): 0.850
Slope (log percent ATP remaining vs time in minutes) (0.10 percent detergent): −0.0045
Average Relative Light Unit Values (0.5% detergent, 5 min): 6392.75 rlu
Percent ATP Remaining (0.5% detergent, 5 min): 100%
Average Relative Light Unit Values (0.5% detergent, 75 min): 2304.48 rlu
Percent ATP Remaining (0.5% detergent, 75 min): 36.0%
Average Relative Light Unit Values (0.5% detergent, 169 min): 1122.24 rlu
Percent ATP Remaining (0.5% detergent, 169 min): 17.6%
Average Relative Light Unit Values (0.5% detergent, 222 min): 487.28 rlu
Percent ATP Remaining (0.5% detergent, 222 min): 7.6%
Average Relative Light Unit Values (0.5% detergent, 260 min): 240.72 rlu
Percent ATP Remaining (0.5% detergent, 260 min): 3.8%
Relative ATPase Activity, slope det/slope lysate (0.50 percent detergent): 1.065
Slope (log percent ATP remaining vs time in minutes) (0.50 percent detergent): −0.0056
Average Relative Light Unit Values (1.0% detergent, 5 min): 6204.02 rlu
Percent ATP Remaining (1.0% detergent, 5 min): 100%
Average Relative Light Unit Values (1.0% detergent, 75 min): 1979.43 rlu
Percent ATP Remaining (1.0% detergent, 75 min): 31.9%
Average Relative Light Unit Values (1.0% detergent, 169 min): 968.14 rlu
Percent ATP Remaining (1.0% detergent, 169 min): 15.6%
Average Relative Light Unit Values (1.0% detergent, 222 min): 416.45 rlu
Percent ATP Remaining (1.0% detergent, 222 min): 6.7%
Average Relative Light Unit Values (1.0% detergent, 260 min): 210.78 rlu
Percent ATP Remaining (1.0% detergent, 260 min): 3.4%
Relative ATPase Activity, slope det/slope lysate (1.00 percent detergent): 1.096
Slope (log percent ATP remaining vs time in minutes) (1.00 percent detergent): −0.0058

C[C@H](CCC(=O)NCCC[N+](C)(C)CCCS(=O)(=O)[O-])[C@H]1CC[C@H]2[C@@H]3[C@H](O)C[C@@H]4C[C@H](O)CC[C@]4(C)[C@H]3C[C@H](O)[C@]12C [CHAPS, 3[(3-Cholamidopropyl)dimethylammonio]propanesulfonic acid]
Average Relative Light Unit Values (0.05% detergent, 5 min): 6356.62 rlu
Percent ATP Remaining (0.05% detergent, 5 min): 100%
Average Relative Light Unit Values (0.05% detergent, 75 min): 2305.56 rlu
Percent ATP Remaining (0.05% detergent, 75 min): 36.3%
Average Relative Light Unit Values (0.05% detergent, 169 min): 1143.02 rlu
Percent ATP Remaining (0.05% detergent, 169 min): 18.0%
Average Relative Light Unit Values (0.05% detergent, 222 min): 500.80 rlu
Percent ATP Remaining (0.05% detergent, 222 min): 7.9%
Average Relative Light Unit Values (0.05% detergent, 260 min): 240.81 rlu
Percent ATP Remaining (0.05% detergent, 260 min): 3.8%
Relative ATPase Activity, slope det/slope lysate (0.05 percent detergent): 1.061
Slope (log percent ATP remaining vs time in minutes) (0.05 percent detergent): −0.0056
Average Relative Light Unit Values (0.1% detergent, 5 min): 6515.77 rlu
Percent ATP Remaining (0.1% detergent, 5 min): 100%
Average Relative Light Unit Values (0.1% detergent, 75 min): 2583.65 rlu
Percent ATP Remaining (0.1% detergent, 75 min): 39.7%
Average Relative Light Unit Values (0.1% detergent, 169 min): 1236.53 rlu
Percent ATP Remaining (0.1% detergent, 169 min): 19.0%
Average Relative Light Unit Values (0.1% detergent, 222 min): 448.96 rlu
Percent ATP Remaining (0.1% detergent, 222 min): 8.6%
Average Relative Light Unit Values (0.1% detergent, 260 min): 284.18 rlu
Percent ATP Remaining (0.1% detergent, 260 min): 4.4%
Relative ATPase Activity, slope det/slope lysate (0.10 percent detergent): 1.023
Slope (log percent ATP remaining vs time in minutes) (0.10 percent detergent): −0.0054
Average Relative Light Unit Values (0.5% detergent, 5 min): 7368.91 rlu
Percent ATP Remaining (0.5% detergent, 5 min): 100%
Average Relative Light Unit Values (0.5% detergent, 75 min): 4048.24 rlu
Percent ATP Remaining (0.5% detergent, 75 min): 54.9%
Average Relative Light Unit Values (0.5% detergent, 169 min): 2548.39 rlu
Percent ATP Remaining (0.5% detergent, 169 min): 34.6%
Average Relative Light Unit Values (0.5% detergent, 222 min): 1438.57 rlu
Percent ATP Remaining (0.5% detergent, 222 min): 19.5%
Average Relative Light Unit Values (0.5% detergent, 260 min): 909.15 rlu
Percent ATP Remaining (0.5% detergent, 260 min): 12.3%
Relative ATPase Activity, slope det/slope lysate (0.50 percent detergent): 0.688
Slope (log percent ATP remaining vs time in minutes) (0.50 percent detergent): −0.0036
Average Relative Light Unit Values (1.0% detergent, 5 min): 7241.33 rlu
Percent ATP Remaining (1.0% detergent, 5 min): 100%
Average Relative Light Unit Values (1.0% detergent, 75 min): 3816.06 rlu
Percent ATP Remaining (1.0% detergent, 75 min): 52.7%
Average Relative Light Unit Values (1.0% detergent, 169 min): 2348.28 rlu
Percent ATP Remaining (1.0% detergent, 169 min): 32.4%
Average Relative Light Unit Values (1.0% detergent, 222 min): 1322.30 rlu
Percent ATP Remaining (1.0% detergent, 222 min): 18.3%
Average Relative Light Unit Values (1.0% detergent, 260 min): 809.22 rlu
Percent ATP Remaining (1.0% detergent, 260 min): 11.2%
Relative ATPase Activity, slope det/slope lysate (1.00 percent detergent): 0.715
Slope (log percent ATP remaining vs time in minutes) (1.00 percent detergent): −0.0038
